{"source": "patent US11472857B2", "about": "(Purdue Research Foundation, priority 2015, dated 2022)", "system": "male Wistar rats", "test": "In vivo blood glucose elevation after s.c. injection", "design": "species or system rat", "note": "Entries after “also recorded” stand apart in the source; their conditions may differ.", "procedure": "Rats were catheterized to enable collection of blood samples at various time points. The total blood glucose level was measured by withdrawing blood at regular intervals (5-120 min) and tested using [sequence] LITE (glucose test meters, Abbott, Chicago, Ill.).", "data": [{"substance": "phospho-Tyr13-glucagon", "values": [{"measurement": "Blood glucose elevation compared with native glucagon", "setting": "7.1 nmol/kg s.c.", "value": "response similar to that of phospho-Thr5-glucagon and phospho-Ser16-glucagon; also recorded: comparable to native glucagon"}]}, {"substance": "phospho-Thr7-glucagon", "values": [{"measurement": "Blood glucose elevation compared with native glucagon", "setting": "7.1 nmol/kg s.c.", "value": "slower response and a somewhat lower blood glucose peak; also recorded: somewhat slower increase"}]}, {"substance": "phospho-Ser16-glucagon", "values": [{"measurement": "Maximum elevation in blood glucose", "setting": "2.8 nmol/kg s.c.", "value": "~10", "unit": "mg/dL"}, {"measurement": "Blood glucose elevation compared with native glucagon", "setting": "7.1 nmol/kg s.c.", "value": "activity comparable to that of native glucagon"}, {"measurement": "Maximum increase in blood glucose", "setting": "7.1 nmol/kg s.c.", "value": "~50", "unit": "mg/dL"}, {"measurement": "Time of peak blood glucose", "setting": "7.1 nmol/kg s.c.", "value": 20, "unit": "min"}]}]}
